Results reported in US10538491B2, “4,5-substituted picolinamide and picolinonitrile metabotropic glutamate receptor 2 negative allosteric modulators” (Vanderbilt University, priority 2015, dated 2020).

Biological target: rat mGlu2 (Rattus norvegicus (Rat), UniProt P31421)
Test: mGlu2 Ca2+ flux assay
Type: cell-based
Settings: for IC50: Gα15 HEK293 cells stably expressing rat mGlu2, glutamate EC80, >10,000 = no plateau, >30,000 = no measurable activity; for remaining activity at 30 µM: amplitude of response in the presence of 30 μM test compound as percentage of maximal response to glutamate, read-out: rat mGlu2 Glu max
Protocol: Gα15 HEK293 cells stably expressing rat mGlu2 were plated in black-walled, clear-bottomed, poly-D-lysine coated 384-well plates in 20 μL of assay medium (DMEM containing 10% dialyzed FBS, 20 mM HEPES, and 1 mM sodium pyruvate) at a density of 12K cells/well. The cells were grown overnight at 37° C. in the presence of 5% CO2. The next day, medium was removed and the cells incubated with 20 μL of 2.3 μM Fluo-4, AM prepared as a 2.3 mM stock in DMSO and mixed in a 1:1 ratio with 10% (w/v) pluronic acid F-127 and diluted in assay buffer (Hank's balanced salt solution, 20 mM HEPES, and 2.5 mM probenecid) for 45 minutes at 37° C. Dye was removed, 20 μL of assay buffer was added, and the plate was incubated for 5 minutes at room temperature.
Ca^2+ flux was measured using the Functional Drug Screening System (FDSS7000, Hamamatsu, Japan). After establishment of a fluorescence baseline for about 3 seconds, the compounds of the present invention were added to the cells, and the response in cells was measured. 2.3 minutes later an EC20 concentration of the mGlu2 receptor agonist glutamate was added to the cells, and the response of the cells was measured for 1.9 minutes; an EC80 concentration of agonist was added and readings taken for an additional 1.7 minutes. All test compounds were dissolved and diluted to a concentration of 10 mM in 100% DMSO. Compounds were then serially diluted 1:3 in DMSO into 10 point concentration response curves, transferred to daughter plates, and further diluted into assay buffer to a 2× stock. Calcium fluorescence measures were recorded as fold over basal fluorescence; raw data was then normalized to the maximal response to glutamate. Antagonism of the agonist response of the mGlu2 receptor in the present invention was observed as a decrease in response to nearly maximal concentrations of glutamate in the presence of compound compared to the response to glutamate in the absence of compound.
The raw data file containing all time points was used as the data source in the analysis template. This was saved by the FDSS as a tab-delimited text file. Data were normalized using a static ratio function (F/F0) for each measurement of the total 360 values per well divided by each well's initial value. Data were then reduced to peak amplitudes (Max−Initial Min) using a time range that starts approximately 3 seconds prior to the glutamate EC80 addition and continues for approximately 90 seconds. This is sufficient time to capture the peak amplitude of the cellular calcium response. Individual amplitudes were expressed as % ECMax by multiplying each amplitude by 100 and then dividing the product by the mean of the amplitudes derived from the glutamate ECMax-treated wells. IC50 values for test compounds were generated by fitting the normalized values versus the log of the test compound concentration (in mol/L) using a 4 parameter logistic equation where none of the parameters were fixed. Each of the three values collected at each concentration of test compound were weighted evenly.
For NAMs, potency (IC50) and maximum response (% Glu Max), i.e. the amplitude of response in the presence of 30 μM test compound as a percentage of the maximal response to glutamate, are reported. […] Compounds with no measurable activity are designated as “>30,000 nM” since the top concentration of compound tested in the assay is 30 μM.

Sequence of rat mGlu2 (P31421 19-872): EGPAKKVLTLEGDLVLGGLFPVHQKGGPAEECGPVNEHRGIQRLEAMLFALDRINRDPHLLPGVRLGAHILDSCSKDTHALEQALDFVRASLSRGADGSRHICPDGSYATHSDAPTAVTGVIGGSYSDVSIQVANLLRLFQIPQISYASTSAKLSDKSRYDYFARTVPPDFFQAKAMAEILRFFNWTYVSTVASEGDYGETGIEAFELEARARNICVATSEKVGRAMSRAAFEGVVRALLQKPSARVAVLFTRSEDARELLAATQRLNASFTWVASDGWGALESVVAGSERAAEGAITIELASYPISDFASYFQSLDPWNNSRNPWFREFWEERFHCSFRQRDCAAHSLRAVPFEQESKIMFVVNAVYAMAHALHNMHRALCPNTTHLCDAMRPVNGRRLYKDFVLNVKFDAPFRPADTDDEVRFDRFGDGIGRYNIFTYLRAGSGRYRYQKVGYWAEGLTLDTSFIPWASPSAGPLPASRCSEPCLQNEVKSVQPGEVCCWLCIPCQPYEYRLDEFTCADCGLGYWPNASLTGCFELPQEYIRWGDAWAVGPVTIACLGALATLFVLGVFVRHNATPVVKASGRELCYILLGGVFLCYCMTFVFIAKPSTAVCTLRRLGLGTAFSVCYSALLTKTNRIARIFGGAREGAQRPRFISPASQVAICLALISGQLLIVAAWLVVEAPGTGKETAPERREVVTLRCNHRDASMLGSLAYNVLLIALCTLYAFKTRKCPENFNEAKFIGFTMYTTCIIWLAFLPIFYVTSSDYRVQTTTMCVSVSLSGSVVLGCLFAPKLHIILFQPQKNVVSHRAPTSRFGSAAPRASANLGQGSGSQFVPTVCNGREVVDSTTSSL

IC50	remaining activity at 30 µM	Structure (SMILES)
1 µM	-0.46%	Cn1cc(COc2cnc(C(N)=O)cc2-c2ccc(F)cc2)cn1 [Compound 53, 4-(4-fluorophenyl)-5-((1-methyl-1H-pyrazol-4-yl)methoxy)picolinamide]
1.37 µM	1.35%	NC(=O)c1cc(-c2ccc(F)cc2)c(OCCOc2cccnc2)cn1 [Compound 54, 4-(4-fluorophenyl)-5-(2-(pyridin-3-yloxy)ethoxy)picolinamide]
1.58 µM	4.02%	CN(CCOc1cnc(C(N)=O)cc1-c1ccc(F)cc1)c1ccnc(C(F)(F)F)c1 [Compound 55, 4-(4-fluorophenyl)-5-(2-(methyl(2-(trifluoromethyl)pyridin-4-yl)amino)ethoxy)picolinamide]
4.19 µM	4.5%	NC(=O)c1cc(-c2ccc(F)cc2)c(OC2CCN(c3ccnc(C(F)(F)F)c3)CC2)cn1 [Compound 56, 4-(4-fluorophenyl)-5-((1-(2-(trifluoromethyl)pyridin-4-yl)piperidin-4-yl)oxy)picolinamide]
2.12 µM	2.39%	NC(=O)c1cc(-c2ccc(F)cc2)c(OC2CCN(c3ccnc(C(F)(F)F)c3)C2)cn1 (centres unmarked) [Compound 57, 4-(4-fluorophenyl)-5-((1-(2-(trifluoromethyl)pyridin-4-yl)pyrrolidin-3-yl)oxy)picolinamide]
4.14 µM	4.3%	NC(=O)c1cc(-c2ccc(F)cc2)c(OC2CN(c3ccnc(C(F)(F)F)c3)C2)cn1 [Compound 58, 4-(4-fluorophenyl)-5-((1-(2-(trifluoromethyl)pyridin-4-yl)azetidin-3-yl)oxy)picolinamide]
4.63 µM	35.8%	Cc1ccc(OC(C)COc2cnc(C#N)cc2-c2ccc(F)cc2)cn1 (centres unmarked) [Compound 62, 4-(4-fluorophenyl)-5-(2-((6-methylpyridin-3-yl)oxy)propoxy)picolinonitrile]
> 10 µM	30.7%	CC(COc1cnc(C#N)cc1-c1ccc(F)cc1)Oc1ccnc(C(F)(F)F)c1 (centres unmarked) [Compound 63, 4-(4-fluorophenyl)-5-(2-((2-(trifluoromethyl)pyridin-4-yl)oxy)propoxy)picolinonitrile]
> 30 µM		Cc1ncc(OCCCOc2cnc(C#N)cc2-c2ccc(F)cc2)cn1 [Compound 64, 4-(4-fluorophenyl)-5-(3-((2-methylpyrimidin-5-yl)oxy)propoxy)picolinonitrile]
> 10 µM	68.8%	N#Cc1cc(-c2ccc(F)cc2)c(OCCCOc2cccnc2)cn1 [Compound 65, 4-(4-fluorophenyl)-5-(3-(pyridin-3-yloxy)propoxy)picolinonitrile]

Continued, compound first:

Structure (SMILES)	IC50	remaining activity at 30 µM
NC(=O)c1cc(-c2ccc(F)cc2)c(OCc2cccc(Br)c2)cn1 [Compound 34, 5-((3-bromobenzyl)oxy)-4-(4-fluorophenyl)picolinamide]	1.59 µM	10.1%
NC(=O)c1cc(-c2ccc(F)cc2)c(OCc2ccccc2Br)cn1 [Compound 35, 5-((2-bromobenzyl)oxy)-4-(4-fluorophenyl)picolinamide]	1.11 µM	1.55%
NC(=O)c1cc(-c2ccc(F)cc2)c(OCc2cc(Br)ccc2F)cn1 [Compound 36, 5-((5-bromo-2-fluorobenzyl)oxy)-4-(4-fluorophenyl)picolinamide]	0.65 µM	3.82%
NC(=O)c1cc(-c2ccc(F)cc2)c(OCc2cc(F)cc(Br)c2)cn1 [Compound 37, 5-((3-bromo-5-fluorobenzyl)oxy)-4-(4-fluorophenyl)picolinamide]	1.47 µM	3.54%
NC(=O)c1cc(-c2ccc(F)cc2)c(OCc2cccnc2)cn1 [Compound 38, 4-(4-fluorophenyl)-5-(pyridin-3-ylmethoxy)picolinamide]	0.507 ± 0.123 µM	5.84 ± 1.16%
COc1ccc(-c2cc(C(N)=O)ncc2OCc2cccnc2)c(F)c1 [Compound 39, 4-(2-fluoro-4-methoxyphenyl)-5-(pyridin-3-ylmethoxy)picolinamide]	0.039 µM	1.36%
NC(=O)c1cc(-c2ccc(C(F)(F)F)nc2)c(OCc2cccnc2)cn1 [Compound 40, 5′-(pyridin-3-ylmethoxy)-6-(trifluoromethyl)[3,4′-bipyridine]-2′-carboxamide]	> 30 µM	
Cc1ccc(COc2cnc(C(N)=O)cc2-c2ccc(F)cc2)cn1 [Compound 41, 4-(4-fluorophenyl)-5-((6-methylpyridin-3-yl)methoxy)picolinamide]	0.343 µM	1.59%
COc1ccc(COc2cnc(C(N)=O)cc2-c2ccc(F)cc2)cn1 [Compound 42, 4-(4-fluorophenyl)-5-((6-methoxypyridin-3-yl)methoxy)picolinamide]	0.266 µM	2.2%
NC(=O)c1cc(-c2ccc(F)cc2)c(OCc2ccc(C(F)(F)F)nc2)cn1 [Compound 43, 4-(4-fluorophenyl)-5-((6-(trifluoromethyl)pyridin-3-yl)methoxy)picolinamide]	0.717 µM	0.74%
NC(=O)c1cc(-c2ccc(F)cc2)c(OCc2ccncc2)cn1 [Compound 44, 4-(4-fluorophenyl)-5-(pyridin-4-ylmethoxy)picolinamide]	0.239 µM	0.42%
Cc1cc(COc2cnc(C(N)=O)cc2-c2ccc(F)cc2)ccn1 [Compound 45, 4-(4-fluorophenyl)-5-((2-methylpyridin-4-yl)methoxy)picolinamide]	0.195 µM	1.17%
COc1cc(COc2cnc(C(N)=O)cc2-c2ccc(F)cc2)ccn1 [Compound 46, 4-(4-fluorophenyl)-5-((2-methoxypyridin-4-yl)methoxy)picolinamide]	0.204 µM	2.17%
CC(Oc1cnc(C(N)=O)cc1-c1ccc(F)cc1)c1cccnc1 (centres unmarked) [Compound 47, 4-(4-fluorophenyl)-5-(1-(pyridin-3-yl)ethoxy)picolinamide]	2.71 µM	0.41%
CC(Oc1cnc(C(N)=O)cc1-c1ccc(F)cc1)c1ccncc1 (centres unmarked) [Compound 48, 4-(4-fluorophenyl)-5-(1-(pyridin-4-yl)ethoxy)picolinamide]	0.504 µM	1.4%
NC(=O)c1cc(-c2ccc(F)cc2)c(OCc2cccnn2)cn1 [Compound 49, 4-(4-fluorophenyl)-5-(pyridazin-3-ylmethoxy)picolinamide]	1.47 µM	-0.08%
NC(=O)c1cc(-c2ccc(F)cc2)c(OCc2ccc3nccn3c2)cn1 [Compound 50, 4-(4-fluorophenyl)-5-(imidazo[1,2-a]pyridin-6-ylmethoxy)picolinamide]	0.129 µM	1.41%
NC(=O)c1cc(-c2ccc(F)cc2)c(OCc2cncs2)cn1 [Compound 51, 4-(4-fluorophenyl)-5-(thiazol-5-ylmethoxy)picolinamide]	0.263 µM	1.01%
Cn1ccc(COc2cnc(C(N)=O)cc2-c2ccc(F)cc2)n1 [Compound 52, 4-(4-fluorophenyl)-5-((1-methyl-1H-pyrazol-3-yl)methoxy)picolinamide]	0.066 µM	0.93%
